Experiment [1] deals with T1, Toll-like receptor 7 (Homo sapiens, UniProt Q9NYK1).
T1 sequence (Q9NYK1 whole entry): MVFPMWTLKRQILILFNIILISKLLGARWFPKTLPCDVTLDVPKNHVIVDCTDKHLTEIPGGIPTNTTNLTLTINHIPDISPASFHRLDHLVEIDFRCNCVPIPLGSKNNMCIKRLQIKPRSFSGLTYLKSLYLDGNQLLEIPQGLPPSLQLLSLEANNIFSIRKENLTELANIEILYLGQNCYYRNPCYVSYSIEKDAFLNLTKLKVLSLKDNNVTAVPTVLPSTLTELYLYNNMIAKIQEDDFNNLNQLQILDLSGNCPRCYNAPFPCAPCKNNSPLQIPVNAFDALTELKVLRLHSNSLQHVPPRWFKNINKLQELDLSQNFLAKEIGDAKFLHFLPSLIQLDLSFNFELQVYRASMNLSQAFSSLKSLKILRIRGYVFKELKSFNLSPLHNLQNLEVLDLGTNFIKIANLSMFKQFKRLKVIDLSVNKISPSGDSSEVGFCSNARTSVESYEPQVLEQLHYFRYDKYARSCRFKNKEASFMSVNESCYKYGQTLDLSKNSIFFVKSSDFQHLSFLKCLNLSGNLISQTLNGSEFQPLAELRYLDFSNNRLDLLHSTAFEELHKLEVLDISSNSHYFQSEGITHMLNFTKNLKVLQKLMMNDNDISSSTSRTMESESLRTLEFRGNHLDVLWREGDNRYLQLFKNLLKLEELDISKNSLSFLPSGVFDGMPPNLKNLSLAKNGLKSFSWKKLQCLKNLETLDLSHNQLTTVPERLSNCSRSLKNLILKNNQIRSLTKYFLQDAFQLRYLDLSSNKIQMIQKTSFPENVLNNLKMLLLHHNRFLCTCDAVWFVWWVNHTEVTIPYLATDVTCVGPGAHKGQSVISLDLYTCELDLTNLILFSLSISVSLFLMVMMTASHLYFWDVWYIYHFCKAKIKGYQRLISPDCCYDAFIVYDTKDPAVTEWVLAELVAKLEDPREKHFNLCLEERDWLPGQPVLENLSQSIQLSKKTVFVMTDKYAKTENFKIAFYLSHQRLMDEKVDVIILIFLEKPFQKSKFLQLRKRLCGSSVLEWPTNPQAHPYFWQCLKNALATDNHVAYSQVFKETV
Description: Antagonist activity at human TLR7 expressed in HEK-Blue cells assessed as inhibition of CL264-induced NFkappaB activation by measuring reduction in SEAP level after overnight incubation using qunati-blue reagent by SEAP reporter gene-based spectrophotometric method

Experiment [2] has as its target T2, Toll-like receptor 8 (Homo sapiens) (UniProt Q9NR97).
T2 sequence (whole entry): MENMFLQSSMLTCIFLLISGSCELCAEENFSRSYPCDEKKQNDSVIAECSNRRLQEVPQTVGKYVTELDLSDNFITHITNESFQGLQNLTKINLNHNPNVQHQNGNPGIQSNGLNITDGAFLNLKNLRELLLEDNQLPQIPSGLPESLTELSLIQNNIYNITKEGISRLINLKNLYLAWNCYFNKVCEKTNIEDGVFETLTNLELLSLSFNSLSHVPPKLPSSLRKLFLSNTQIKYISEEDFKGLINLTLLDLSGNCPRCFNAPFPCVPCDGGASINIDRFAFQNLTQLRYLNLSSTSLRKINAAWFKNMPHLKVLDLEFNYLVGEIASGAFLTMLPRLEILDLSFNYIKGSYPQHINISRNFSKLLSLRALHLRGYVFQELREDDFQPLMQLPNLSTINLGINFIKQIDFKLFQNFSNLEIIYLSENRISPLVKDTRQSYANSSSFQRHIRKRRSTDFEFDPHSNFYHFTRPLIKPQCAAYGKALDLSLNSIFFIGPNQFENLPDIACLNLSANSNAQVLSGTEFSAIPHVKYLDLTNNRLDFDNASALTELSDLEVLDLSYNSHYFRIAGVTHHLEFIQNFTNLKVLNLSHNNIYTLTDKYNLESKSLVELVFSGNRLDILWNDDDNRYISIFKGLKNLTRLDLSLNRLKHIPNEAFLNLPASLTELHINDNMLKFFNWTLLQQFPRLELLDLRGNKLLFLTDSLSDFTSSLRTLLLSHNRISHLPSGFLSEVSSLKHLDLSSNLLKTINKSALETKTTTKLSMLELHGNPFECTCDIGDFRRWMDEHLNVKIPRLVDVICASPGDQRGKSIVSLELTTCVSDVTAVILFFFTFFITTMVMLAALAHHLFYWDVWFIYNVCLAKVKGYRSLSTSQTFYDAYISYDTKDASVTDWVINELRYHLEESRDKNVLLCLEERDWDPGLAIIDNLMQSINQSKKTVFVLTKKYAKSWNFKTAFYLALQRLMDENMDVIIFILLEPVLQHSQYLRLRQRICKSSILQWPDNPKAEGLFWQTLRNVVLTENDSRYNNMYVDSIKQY
Briefly: Antagonist activity at human TLR8 expressed in HEK-Blue cells assessed as inhibition of CL075-induced NFkappaB activation by measuring reduction in SEAP level up to 50 uM after overnight incubation using qunati-blue reagent by SEAP reporter gene-based spectrophotometric method. It counts as cell-based. Background: In a reporter assay the amount or activity of a reporter protein is the signal.

Experiment [3] has as its target T1, Toll-like receptor 7. Briefly: Agonist activity at human TLR7 expressed in HEK-Blue cells assessed as induction of NFkappaB activation by measuring increase in SEAP level after overnight incubation using qunati-blue reagent by SEAP reporter gene-based spectrophotometric method. It counts as cell-based.

Calls of active or inactive are those of the source. The rule behind the calls is not given here.

As a reminder, the IC50 is the point on the concentration scale where inhibition reaches its midpoint. Read a low IC50 as greater potency in that assay. The term EC50 denotes the concentration giving half of the maximal effect.

`CCN(CCO)CCCC(C)Nc1ccnc2cc(Cl)ccc12` (configuration not stated) [HYDROXYCHLOROQUINE] gave an IC50 against Toll-like receptor 7 [1] of 8.6 µM.
In the case of `CCN1CCN(c2ncnc3c2ncn3CCCN2CCNCC2)CC1`, the inhibition entry in experiment [2] is “inactive”.
At Toll-like receptor 7 [1], `CCN1CCN(c2ncnc3c2ncn3CCCN2CCOCC2)CC1` returned an IC50 of 40 µM. In addition, the inhibition result in experiment [2] was “inactive”.
On the same counts, the results for `CCN1CCN(CCCn2cnc3c(N4CCCCC4)ncnc32)CC1` are 23.9 µM and “inactive”.
On the same counts, the results for `CCN1CCN(c2ncnc3c2ncn3CCCN2CCCC2)CC1` are 48.3 µM and “inactive”.
At Toll-like receptor 7 [1], `CCN1CCN(c2ncnc3c2ncn3CCCN2CCCCC2)CC1` came in with an IC50 of 15.8 µM. For the same molecule, in experiment [2], the inhibition entry was “inactive”.
`CCN1CCN(CCCn2c(O)nc3c(N)ncnc32)CC1` had an IC50 at Toll-like receptor 7 [1] of 43.1 µM. The inhibition result in experiment [2] was “inactive”.
For `CCN1CCN(CCCn2cnc3c(N4CCNCC4)ncnc32)CC1` the same measures were 39.3 µM and “inactive”.
Turning to `CCCCOc1nc(N)c2nc(O)n(CCCN3CCCCC3)c2n1`, the EC50 at Toll-like receptor 7 [3] is 2.6 µM.
As for `CCN1CCN(CCCn2cnc3c(N4CCOCC4)ncnc32)CC1`, the IC50 against Toll-like receptor 7 [1] stood at 25 µM. In addition, in experiment [2], the inhibition result is “inactive”.
